From patent US12017975B2, “Myc-Max inhibitor compound therapeutics for cancer treatment, methods and uses associated therewith” (THE UNIVERSITY OF BRITISH COLUMBIA, priority 2018, dated 2024)
pIC50: −log10 of the molar value. Where two headings read alike, the source gives them in different places. Residues, ends and D or L forms follow the SMILES beside them.

System: Myc-Max transcriptional activity
Test: Cignal c-Myc luciferase reporter assay in LNCaP cells
Type: cell-based
Settings: for inhibition at 25 µM / pIC50 / inhibition at 5 µM / inhibition at 10 µM / inhibition at 12.5 µM: Homo sapiens, LNCaP; for inhibition at 25 µM: read-out: % Inhibition 25 μM; for pIC50: assay not named, read-out: IC50
Description: Cell transfection was performed using TransIT-2020™ transfection reagents according to the manufacturer's instructions (Mirus™). LNCaP cells were plated at 10000 cells per well and treated for 1 day with the indicated concentration of compound. Myc reporter activity was measured using the Cignal Myc Reporter Assay Kit™ from Qiagen™ (#336841) according to the manufacturer's instructions. For the UBE2C reporter assay, 22rv1 cells were plated at 10000 cells per well in 96-well plates in RPMI media supplemented with 5% charcoal-stripped serum (CSS) and treated for 1 day with 1 μM, 10 μM and 25 μM of compound.
Compounds were subjected to experimental evaluation using the commercially available transcriptional assay Cignal c-Myc luciferase reporter assay in LNCaP cells. […] A transiently transfected Myc-driven luciferase reporter allowed the monitoring of Myc-regulated signal in LNCaP upon treatment with the in silico identified compounds.

[1] = TABLE 2, values match Myc-Max transcriptional activity

Compound	inhibition at 25 µM (25 μM, TABLE 5)	inhibition at 25 µM (25 μM, TABLE 3)	inhibition at 5 µM (5 μM, TABLE 3)	inhibition at 10 µM (TABLE 3)	other results
O=C(O)CCC1CCN(C(=O)c2ccc(S(=O)(=O)NCc3cccs3)cc2)CC1 [VPC-70344]	49%	–	–	–	–
COc1ccccc1-c1noc(CNC(=O)N[C@H](Cc2c[nH]c3ccccc23)C(=O)O)n1 [VPC-70345]	51%	–	–	–	–
O=C(CSc1nc2ccccc2c(=O)n1CCCO)NC(=O)Nc1ccccc1F [VPC-70355]	51%	–	–	–	–
Cc1ccccc1C(=O)N[C@H](CC(C)C)C(=O)N1CCN(S(=O)(=O)c2nc[nH]n2)CC1 [VPC-70356]	53%	–	–	–	–
Cc1ccc(C(=O)N(C)c2ccc(OCC(=O)NCc3ccc(C(=O)O)cc3)cc2)cc1 [VPC-70358]	48%	–	–	–	–
COCCn1c(Cc2ccccc2)nnc1SCC(=O)c1ccc2c(c1)CCC(=O)N2 [VPC-70359]	41%	–	–	–	–
C[C@H](OC(=O)[C@@H]1CCCN1C(=O)C12CC3CC(CC(C3)C1)C2)C(=O)c1c[nH]c2ccccc12 [VPC-70360]	64%	–	–	–	–
CS(=O)(=O)NCCc1ccc(C(=O)NC[C@H](c2cccs2)c2c[nH]c3ccccc23)cc1 [VPC-70361]	61%	–	–	–	–
C[C@H]1CC[C@H](C(N)=O)CN1C(=O)c1cccc(S(=O)(O)=Nc2cccc(Cl)c2)c1 [VPC-70366]	60%	–	–	–	–
O=C1COc2ccc(S(=O)(=O)N3CCC(C(=O)NC4CCCCCC4)CC3)cc2N1 [VPC-70376]	55%	–	–	–	–
Cc1ccsc1CCNC(=O)CCS(=O)(=O)c1cc2c(cc1Cl)NC(=O)CO2 [VPC-70377]	52%	–	–	–	–
CCOCCOc1nc(-c2cccc(F)c2)n(-c2ccc(NC[C@H](O)COC)cc2)n1 [VPC-70379]	52%	–	–	–	–
Cc1cc2c(cc1S(=O)(=O)N1CCN(C(=O)CCC3CCCC3)CC1)OCC(=O)N2 [VPC-70380]	68%	–	–	–	–
CC[C@@H]1Oc2cc(S(=O)(=O)N(C)CC(=O)N(C)Cc3ccccc3)c(C)cc2NC1=O [VPC-70381]	–	74%	–	–	pIC50 [1]: 4.70
Cc1cccc(CSc2nc(O)c3c(n2)NC(=O)C[C@H]3C(=O)Nc2cccc(F)c2)c1 [VPC-70384]	53%	–	–	–	–
C[C@@H](NC(=O)OCc1ccccc1)C(=O)N[C@H](CCC(N)=O)C(=O)OCc1ccc([N+](=O)[O-])cc1 [VPC-70386] (HELM PEPTIDE1{[O=C(OCc1ccccc1)[*:2]].[dA].[dQ].[O=[N+]([O-])c1ccc(CO[*:1])cc1]}$$$$V2.0)	55%	–	–	–	–
O=C(CCN1C(=O)S/C(=C/C=C/c2ccccc2)C1=O)NCCc1c[nH]c2ccccc12 [VPC-70387]	–	82%	–	–	–
O=C(CCN1C(=O)S/C(=C\c2ccccc2)C1=O)NCCc1c[nH]c2ccccc12 [VPC-70388]	–	77%	–	–	pIC50 [1]: 4.70
Cc1ccc(O)c(-c2cc(C(=O)Nc3ccc(S(=O)(=O)N4CCCCC4)cc3)n[nH]2)c1 [VPC-70389]	58%	–	–	–	–
Cc1cccc(-c2cc(C(=O)Nc3ccc(S(=O)(=O)N4CCCCC4)cc3)n[nH]2)c1O [VPC-70390]	–	97%	–	–	pIC50 [1]: 5.05

Compound	inhibition at 25 µM (25 μM, TABLE 5)	inhibition at 25 µM (25 μM, TABLE 3)	inhibition at 5 µM (5 μM, TABLE 3)	inhibition at 10 µM (TABLE 3)	other results
CS(=O)(=O)Nc1cccc(C2=NN(C(=O)CCC(=O)O)[C@H](c3ccccc3O)C2)c1 [VPC-70391]	54%	–	–	–	–
CCn1c(CC(=O)Nc2cccc(C)c2)nnc1SCC(=O)Nc1cc(F)ccc1F [VPC-70392]	58%	–	–	–	–
Cc1c(CC(=O)NCC[C@@H](c2ccc(Cl)cc2)C(C)C)c(=O)oc2c(O)c(O)ccc12 [VPC-70393]	–	96%	–	–	–
NS(=O)(=O)c1ccc(NC(=O)[C@H]2CC=CC[C@H]2C(=O)O)cc1 [VPC-70394]	54%	–	–	–	–
O=C(N[C@H](CO)Cc1ccccc1)c1cc(-n2cnnc2)ccc1Cl [VPC-70395]	56%	–	–	–	pIC50 [1]: < 4.60
CCCc1cc(=O)oc2cc(C)cc(OCC(=O)N[C@@H](C)C(=O)O)c12 [VPC-70404]	53%	–	–	–	–
CCCc1cc(=O)oc2cc(C)cc(OCC(=O)N[C@H](C(=O)O)C(C)C)c12 [VPC-70405]	54%	–	–	–	–
FC(F)(F)c1cc(NC(=S)NC[C@H]2CCCO2)cc(C(F)(F)F)c1 [VPC-70437]	–	87%	24%	105%	–
S=C(NCc1cccs1)Nc1ccc(Cl)c(Cl)c1 [VPC-70458]	–	86%	42%	104%	–
Fc1ccccc1CNC(=S)Nc1cccc(C(F)(F)F)c1 [VPC-70465]	–	92%	51%	–	% Inhibition 10 μM (TABLE 3): 95%; pIC50 [1]: 5.00
O=C(NCc1ccccc1Cl)Nc1ccc(Cl)c(Cl)c1 [VPC-70466]	–	86%	1%	48%	–
Cc1c(Cl)cccc1NC(=S)NCc1ccc(F)cc1 [VPC-70468]	–	74%	9%	30%	–
CC[C@@H](NC(=S)Nc1cccc(C)c1)c1ccccc1 [VPC-70473]	–	77%	–	–	–
S=C(NCc1ccccc1)Nc1cccc(Cl)c1 [VPC-70477]	–	99%	3%	30%	–
Cc1cc(NC(=S)NCC(C)C)cc(C(F)(F)F)c1 [VPC-70478]	–	91%	26%	65%	–
Fc1ccccc1CNC(=S)Nc1cccc(C(F)(F)F)c1 [VPC-70483]	–	–	–	–	% Inhibition 5 μM (5 μM, TABLE 3): 31%; % Inhibition 10 μM (TABLE 3): 38%; % Inhibition 25 μM (25 μM, TABLE 3): 79%
CS(=O)(O)=Nc1cccc(NC(=S)NCc2cccc(C(F)(F)F)c2)c1 [VPC-70487]	–	79%	34%	42%	–
C=C(C)COc1cccc(NC(=S)NCc2cccc(C(F)(F)F)c2)c1 [VPC-70489]	–	99%	38%	86%	–
FC(F)(F)c1cc(Br)cc(NC(=S)NCc2cccs2)c1 [VPC-70495]	–	100%	107%	80%	pIC50 [1]: 5.30
S=C(NCc1cccnc1)Nc1cc(Cl)cc(Cl)c1 [VPC-70496]	–	96%	22%	95%	–

Compound	inhibition at 25 µM (25 μM, TABLE 5)	inhibition at 25 µM (25 μM, TABLE 3)	inhibition at 5 µM (5 μM, TABLE 3)	inhibition at 10 µM (TABLE 3)	other results
S=C(NCc1ccccc1)Nc1cc(Cl)cc(Cl)c1 [VPC-70498]	–	100%	36%	106%	–
COC(=O)c1cc(NC(=S)NCc2ccccc2)cc(Cl)c1F [VPC-70501]	–	90%	34%	37%	–
C[C@@H]1CN(Cc2ccc(CNC(=S)Nc3cccc(C(F)(F)F)c3)cc2)C[C@@H](C)O1 [VPC-70506]	–	89%	73%	66%	–
O=C(Nc1cccc(C(F)(F)F)c1)Nc1cccc(C(F)(F)F)c1 [VPC-70511]	–	102%	108%	112%	pIC50 [1]: 5.70
FC(F)(F)c1cccc(NC(=S)Nc2ccc(Cl)c(C(F)(F)F)c2)c1 [VPC-70514]	–	102%	109%	110%	–
FC(F)Oc1ccc(CNC(=S)Nc2cccc(C(F)(F)F)c2)cc1 [VPC-70523]	–	102%	-4%	104%	–
S=C(NCc1ccc(Cl)nc1)Nc1cccc(Cl)c1 [VPC-70524]	–	102%	22%	4%	–
NS(=O)(=O)c1cc(F)cc(NC(=S)NCc2ccccc2)c1 [VPC-70525]	–	102%	40%	35%	–
S=C(NCc1ccccc1)Nc1cccc(COc2ccccc2)c1 [VPC-70526]	–	94%	41%	62%	–
O=C(NCCc1ccccc1)C(=O)Nc1cc(C(F)(F)F)cc(C(F)(F)F)c1 [VPC-70527]	–	92%	38%	43%	–
CC(C)(C)CNC(=S)Nc1cccc(C(F)(F)F)c1 [VPC-70529]	–	94%	14%	52%	–
Cc1c(Cl)cc(NC(=S)NCc2ccccc2)cc1Cl [VPC-70530]	–	–	–	–	inhibition at 12.5 µM (TABLE 3): 94%
NC(=O)NCc1ccc(NC(=S)NCc2ccccc2)cc1 [VPC-70531]	–	81%	0%	27%	inhibition at 12.5 µM (TABLE 3): 47%
Fc1ccc(NC(=S)NCc2ccccc2)cc1C(F)(F)F [VPC-70532]	–	–	–	–	inhibition at 12.5 µM (TABLE 3): 101%
FC(F)(F)c1cccc(NC(=S)NCc2ccccc2C(F)(F)F)c1 [VPC-70535]	–	–	–	–	inhibition at 12.5 µM (TABLE 3): 95%
O=C(NCCNS(=O)(=O)c1ccccc1)NNC(=O)c1cccc(C(F)(F)F)c1 [VPC-70549]	–	–	–	–	inhibition at 12.5 µM (TABLE 3): 75%
N#Cc1ccc(NNC(=O)c2ccc(C(F)(F)F)cc2)c(C(F)(F)F)c1 [VPC-70551]	–	–	–	–	inhibition at 10 µM (TABLE 6): 91%; pIC50 (TABLE 6 footnote): 5.40
O=C(CCNC(=O)c1cccc(C(F)(F)F)c1)NCc1ccccc1 [VPC-70554]	–	–	–	–	inhibition at 12.5 µM (TABLE 3): 71%
CC(C)(O)c1ccc(CNC(=S)NCc2cccc(C(F)(F)F)c2)cc1 [VPC-70561]	–	–	–	–	inhibition at 12.5 µM (TABLE 3): 95%
Cc1cc(NC(=S)NCc2ccon2)cc(C(F)(F)F)c1 [VPC-70564]	–	–	–	–	inhibition at 12.5 µM (TABLE 3): 73%
